Measured values taken from US10874641B2, “Methods of treating acute kidney injury” (Mitobridge, Inc., priority 2016, dated 2020).
Entries after “also recorded” stand apart in the source; their conditions may differ.

Test system: ischemia/reperfusion induced kidney injury
Test: rat model of ischemia/reperfusion induced kidney injury
Assay type: in vivo
Settings: Sprague Dawley rats after ischemic renal injury (45 min bilateral renal pedicle occlusion), veliparib 25 mg/kg BID PO
Excerpt: Acute kidney injury (AKI) is a clinical condition characterized by a rapid decline in kidney function and is often associated with high morbidity and mortality. The precise etiology of ischemia/reperfusion (I/R)-induced AKI is yet not fully understood and is thought to involve multiple factors. The prevention of acute kidney injury and its progression represents a great challenge particularly in renal transplanted patients. Therefore, animal models of renal ischemia/reperfusion (I/R) are important to understand pathophysiology and potential treatment strategies for AKI. The present study evaluated the efficacy of a test compound, namely veliparib (shown below),
[drawing 8] in a rat model of ischemia/reperfusion induced kidney injury.
Species: Rattus norvegicus
3. Experimental Plan • i. All animals were numbered and kept in acclimatization for a period of 5-7 days, with 2 days acclimatization on metabolic cages before, initiation of the experiment. • ii. Animals were randomized into different treatment groups based on their body weight and assigned a permanent number. • iii. Body weight measurements were made once at randomization, also daily just prior to compound dosing and prior to termination. All body weights were recorded. • iv. Treatment with test compound(s) varied based on dose group (see table) that follows different dosing paradigms. The time of each dose administration was recorded. • 1. The dosing schedule for groups 1 and 2 was as follows: a 5 mL/kg BID dose with vehicle starting Day −1 through Day 2 with the final dose on Day 3 occurring 2 hours prior to takedown. • 2. The dosing schedule for group 3 with veliparib was 25 mg/kg BID starting on Day −1. […] After 45 min, the clips were removed, reperfusion was monitored (change in kidney color) for 1-2 min and the surgical sites were sutured. […] Postsurgical care and recovery: Animals were monitored until recovery from anesthesia and returned to their metabolic cage. […] For the 6 hour collection, urine volume was measured and recorded (to the nearest 1.0 mL) and samples were clarified by centrifugation (3000 rpm for 10 minutes). […]

Structure (SMILES): C[C@]1(c2nc3c(C(N)=O)cccc3[nH]2)CCCN1 [veliparib]
- induced increases in blood urea nitrogen (BUN) (FIG. 2A/2B): attenuates
- induced increases in plasma creatinine levels (FIG. 2A/2B): attenuates
- fractional excretion of sodium (a measurement of tubular injury) (FIG. 3): improves; also recorded: attenuates
